Drawing on PubChem BioAssay AID1259407 (Chemical Carcinogenesis Research Information System (CCRIS), 2018), this text covers mutagenic call for 3 molecules.

This data set concerns CCRIS mutagenicity, Ames/micronucleus/aberration tests. The data set can be described thus: CCRIS mutagenicity studies.
Setting [1] is: Test System: AMES SALMONELLA TYPHIMURIUM, Strain/Indicator: TA98, Metabolic Activation: RAT, LIVER, S-9, AROCLOR 1254, Method: STANDARD PLATE.
Setting [2] is: Test System: AMES SALMONELLA TYPHIMURIUM, Strain/Indicator: TA100, Metabolic Activation: NONE, Method: PREINCUBATION
Where [3] appears, read: Test System: AMES SALMONELLA TYPHIMURIUM, Strain/Indicator: TA100, Metabolic Activation: RAT, LIVER, S-9, AROCLOR 1254, Method: STANDARD PLATE.
Where [4] appears, read: Test System: CHINESE HAMSTER V-79, Strain/Indicator: V-79/6-THIOGUANINE, Metabolic Activation: RAT, LIVER, S-9, PHENOBARBITAL, Method: STANDARD PLATE.

Active and inactive are the calls of the source. The rule behind the calls is not given here.

With `c1ccc2c(c1)ccc1cc3c(ccc4ccccc43)cc12`, the mutagenic call was “inactive; negative” (Test System: AMES SALMONELLA TYPHIMURIUM, Strain/Indicator: TA98, Metabolic Activation: HAMSTER, LIVER, S-9, AROCLOR 1254 (5 OR 30%), Method: PREINCUBATION); “active; positive” (Test System: AMES SALMONELLA TYPHIMURIUM, Strain/Indicator: TA98, Metabolic Activation: HAMSTER, LIVER, S-9, AROCLOR 1254 (10%), Method: PREINCUBATION); “active; positive” (Test System: AMES SALMONELLA TYPHIMURIUM, Strain/Indicator: TA98, Metabolic Activation: RAT, LIVER, S-9, AROCLOR 1254 (30%), Method: PREINCUBATION); “active; positive” under setting [1]; “active; positive” (Test System: AMES SALMONELLA TYPHIMURIUM, Strain/Indicator: TA100, Metabolic Activation: HAMSTER, LIVER, S-9, AROCLOR 1254 (5, 10 OR 30%), Method: PREINCUBATION); “active; positive” (Test System: AMES SALMONELLA TYPHIMURIUM, Strain/Indicator: TA100, Metabolic Activation: MOUSE, LIVER, S-9, 3-METHYLCHOLANTHRENE, Method: STANDARD PLATE). Also, the mutagenic call reads like this: (Test System: AMES SALMONELLA TYPHIMURIUM, Strain/Indicator: TA100, Metabolic Activation: MOUSE, LIVER, S-10, AROCLOR 1254) “active; positive”; under setting [2], “inactive; negative”; (Test System: AMES SALMONELLA TYPHIMURIUM, Strain/Indicator: TA100, Metabolic Activation: RAT, LIVER, S-9, AROCLOR 1254 (30%), Method: PREINCUBATION) “active; positive”; under setting [3], “active; positive”; (Test System: AMES SALMONELLA TYPHIMURIUM, Strain/Indicator: TA1537, Metabolic Activation: RAT, LIVER, S-9, AROCLOR 1254, Method: STANDARD PLATE) “active; positive”; under setting [4], “active; positive”. Also, the mutagenic call (Test System: CHINESE HAMSTER V-79, Strain/Indicator: V-79/OUABAIN, Metabolic Activation: CELL-MEDIATED, Method: STANDARD PLATE) is “active; positive”.

Regarding `COc1cc2c(c3oc(=O)c4c(c13)CCC4=O)[C@@H]1CCO[C@@H]1O2`, the mutagenic call by setting is: under setting [1], “active; positive”; under setting [2], “active; positive”; under setting [3], “active; positive”; (Test System: AMES SALMONELLA TYPHIMURIUM, Strain/Indicator: TA100, Metabolic Activation: RAT, LIVER, S-9, PHENOBARBITAL, Method: PREINCUBATION) “active; positive”; under setting [4], “active; positive”.

In the case of `CC(=O)[O-].CC(=O)[O-].CC(=O)[O-].[Cr+3]`, the mutagenic call is, setting by setting: (End Point: IN VITRO MICRONUCLEUS, Test System: CHL/IU CELLS, Metabolic Activation: NONE) “active; positive”; (Test System: UDS RAT HEPATOCYTES, Strain/Indicator: THY INCORP, Metabolic Activation: NONE, Method: AUTORADIOGRAPHY) “inactive; negative”.
